Assay results as given in patent US8481576B2 (Abbott GmbH & Co. KG, priority 2004, dated 2013).
Structures can show the parent of a compound that is named as a salt.

Each compound was assayed against T1, h5-HT5A receptor (Homo sapiens, UniProt P47898) (assay: [3H]5-CT binding assay h5-HT5A). Conditions: membranes from HEK293 cells expressing h5-HT5A, 2.5 nM [3H]5-CT; read-out: Binding affinity 5-HT5A (Ki).
T1 construct: expressed in transfected cells; host or cells: HEK293
Method: 1. [^3H]5-CT binding assay h5-HT5A
Membranes from HEK293-cells, which permanently express the h5-HT5A receptor gene, were incubated in 100 mM Tris-HCl-buffer (pH 7.7), containing 1 mM EDTA in the presence of 2.5 nM [^3H]5-CT (600 μl total volume). The total binding is defined as the binding which is observed when the membranes are incubated alone in the presence of the radioligand. The inhibition induced by the compound is determined by incubation of cell membranes in the presence of the radioligand, and of different concentrations of the compound of interest. Unspecific binding is defined by the binding of [^3H]5-CT, which is obtained by incubation of the membranes as for the total binding but in the presence of 10 μM methiothepine. Following an incubation of 75 minutes at 30° C. the membrane suspension is filtered through GF/B-filters, wrapped in 0.03% PEI, wherein a Skatron® harvest system is used. The radioactivity retained in the filter is quantified by liquid scintillation counting.
In both assays, different concentrations of the test substances are used, and the Ki or the IC50 values are determined.

T1 sequence (P47898 whole entry): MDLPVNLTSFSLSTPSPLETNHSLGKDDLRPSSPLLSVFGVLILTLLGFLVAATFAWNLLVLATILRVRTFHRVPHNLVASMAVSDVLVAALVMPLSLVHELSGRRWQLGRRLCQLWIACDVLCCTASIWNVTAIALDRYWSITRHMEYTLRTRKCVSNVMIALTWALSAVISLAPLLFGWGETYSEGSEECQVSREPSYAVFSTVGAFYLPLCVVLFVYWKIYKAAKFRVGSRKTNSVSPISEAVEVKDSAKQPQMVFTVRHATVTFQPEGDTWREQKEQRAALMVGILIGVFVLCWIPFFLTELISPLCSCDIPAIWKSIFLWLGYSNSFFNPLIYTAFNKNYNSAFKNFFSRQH

Row | Compound | Ki
1 | COc1cccc(OC)c1CNC(=N)Nc1nc(-c2ncc(F)cc2F)cs1 [Example 145, N-[4-(3,5-difluoropyridine-2-yl)-1,3-thiazole-2-yl]-N′-(2,6-dimethoxybenzyl)guanidine] | < 50 nM
2 | COc1ccccc1CNC(=N)Nc1n[nH]cc1-c1ccccc1 [Example 217, N-(2-methoxybenzyl)-N′-(4-phenyl-1H-pyrazole-3-yl)guanidine] | > 500 nM
3 | COc1ccccc1CNC(=N)Nc1nc(-c2ccc3ccccc3c2)cs1 [Example 33, N-(2-methoxybenzyl)-N′-[4-(2-naphthyl)-1,3-thiazole-2-yl]guanidine] | < 50 nM
4 | COc1cccc(OC)c1CNC(=N)Nc1nc(C2CCCN2Cc2ccccc2)cs1 (stereo not drawn) [Example 151, N-[4-(1-benzylpyrrolidine-2-yl)-1,3-thiazole-2-yl]-N′-(2,6-dimethoxybenzyl)guanidine] | < 50 nM
5 | COc1cccc(C)c1CNC(=N)Nc1nc(-c2ccc(Cl)cn2)cs1 [Example 137, N-[4-(5-chloropyridine-2-yl)-1,3-thiazole-2-yl]-N′-(2-methoxy-6-methylbenzyl)guanidine] | > 500 nM
6 | N-(2,6-dimethoxybenzyl)-N′-(5-methyl-4-phenyl-1,3-thiazole-2-yl)guanidine hydrobromide [Example 81] | < 50 nM
7 | COc1cccc(OC)c1CNC(=N)Nc1nc(-c2cccc(F)c2)cs1 [Example 73, N-(2,6-dimethoxybenzyl)-N′-[4-(3-fluorophenyl)-1,3-thiazole-2-yl]guanidine hydrobromide] | < 50 nM
8 | COc1cccc(Cl)c1CNC(=N)Nc1nc(-c2ncccn2)cs1 [Example 135, N-(2-chloro-6-methoxybenzyl)-N′-(4-pyrimidine-2-yl-1,3-thiazole-2-yl)guanidine] | < 50 nM
9 | COc1cccc(OC)c1CNC(=N)Nc1nc(-c2cc(Cl)ccc2Cl)cs1 [Example 21, N-[4-(2,5-dichlorophenyl)-1,3-thiazole-2-yl]-N′-(2,6-dimethoxybenzyl)guanidine hydrobromide] | < 50 nM
10 | COc1cccc(OC)c1CNC(=N)Nc1nc(N2CCOCC2)cs1 [Example 167, 4-[2-{[[(2,6-dimethoxybenzyl)amino](imino)methyl]amino}-1,3-thiazole-4(5H)-yliden]morpholine-4-ium chloride] | 50 to 500 nM
11 | COc1cccc(OC)c1CNC(=N)Nc1nc(-c2ccccc2F)cs1 [Example 70, N-(2,6-dimethoxybenzyl)-N′-[4-(2-fluorophenyl)-1,3-thiazole-2-yl]guanidine hydrobromide] | < 50 nM
12 | COc1cccc(OC)c1CNC(=N)Nc1nc(-c2ccccc2)cs1 [Example 2, N-(2,6-dimethoxybenzyl)-N′-(4-phenyl-1,3-thiazole-2-yl)guanidine] | < 50 nM
13 | COc1cccc(OC)c1CNC(=N)Nc1nc(-c2nc3ccccc3s2)cs1 [Example 88, N-[4-(1,3-benzothiazole-2-yl)-1,3-thiazole-2-yl]-N′-(2,6-dimethoxybenzyl)guanidine hydrobromide] | < 50 nM
14 | COc1ccccc1CNC(=N)Nc1nccs1 [Example 1, N-(2-methoxybenzyl)-N′-1,3-thiazole-2-ylguanidine] | < 50 nM
15 | COc1cccc(OC)c1CNC(=N)Nc1nc(-c2cc(C)cs2)cs1 [Example 121, N-(2,6-dimethoxybenzyl)-N′-[4-(4-methyl-2-thienyl)-1,3-thiazole-2-yl]guanidine] | < 50 nM
16 | COc1cccc(F)c1CNC(=N)Nc1nccs1 [Example 9, N-(2-fluoro-6-methoxybenzyl)-N′-1,3-thiazole-2-ylguanidine] | < 50 nM
17 | COc1cccc(OC)c1CNC(=N)Nc1nc(C)c(C)o1 [Example 174, N-(2,6-dimethoxybenzyl)-N′-(4,5-dimethyl-1,3-oxazole-2-yl)guanidine acetate] | < 50 nM
18 | COc1cccc(OC)c1CNC(=N)Nc1nc(C2CCNCC2)cs1 [Example 162, N-(2,6-dimethoxybenzyl)-N′-(4-piperidine-4-yl-1,3-thiazole-2-yl)guanidine hydrochloride] | < 50 nM
19 | N=C(NCc1ccccc1Cl)Nc1nccs1 [Example 7, N-(2-chlorobenzyl)-N′-1,3-thiazole-2-ylguanidine hydrochloride] | > 500 nM
20 | COc1cccc(OC)c1CNC(=N)Nc1nc(-c2csc3ccccc23)cs1 [Example 96, N-[4-(1-benzothiene-3-yl)-1,3-thiazole-2-yl]-N′-(2,6-dimethoxybenzyl)guanidine hydrobromide] | < 50 nM
21 | COc1cccc(-c2csc(NC(=N)NCc3c(OC)cccc3OC)n2)c1 [Example 61, N-(2,6-dimethoxybenzyl)-N′-[4-(3-methoxyphenyl)-1,3-thiazole-2-yl]guanidine] | < 50 nM

Row | Compound | Ki
22 | COc1cccc(OC)c1CNC(=N)Nc1nc(-c2ccc(F)cc2Cl)cs1 [Example 116, N-[4-(2-chloro-4-fluorophenyl)-1,3-thiazole-2-yl]-N′-(2,6-dimethoxybenzyl)guanidine] | < 50 nM
23 | COc1cccc(OC)c1CNC(=N)Nc1nc(C2CCCN2C(=O)OC(C)(C)C)cs1 (stereo not drawn) [Example 120, tert-butyl 2-(2-{[[(2,6-dimethoxybenzyl)amino](imino)methyl]amino}-1,3-thiazole-4-yl)pyrrolidine-1-carboxylate] | 50 to 500 nM
24 | COc1cccc(OC)c1CNC(=N)Nc1nc(C(c2ccccc2)c2ccccc2)cs1 [Example 76, N-(2,6-dimethoxybenzyl)-N′-[4-(diphenylmethyl)-1,3-thiazole-2-yl]guanidine hydrobromide] | < 50 nM
25 | COc1cccc(OC)c1CNC(=N)Nc1nc(-c2ccc(NS(C)(=O)=O)cc2)cs1 [Example 71, N-[4-(2-{[[(2,6-dimethoxybenzyl)amino](imino)methyl]amino}-1,3-thiazole-4-yl)phenyl]methanesulfonamide hydrobromide] | < 50 nM
26 | N-(2-methoxybenzyl)-N′-1,3-thiazole-2-ylguanidine hydrochloride [Example 11] | 50 to 500 nM
27 | COc1cccc(F)c1CNC(=N)Nc1nc(C)cs1 [Example 86, N-(2-fluoro-6-methoxybenzyl)-N′-(4-methyl-1,3-thiazole-2-yl)guanidine] | < 50 nM
28 | COc1cccc(OC)c1CNC(=N)Nc1nc(C)co1 [Example 190, N-(2,6-dimethoxybenzyl)-N′-(4-methyl-1,3-oxazole-2-yl)guanidine acetate] | < 50 nM
29 | Methyl-[2-({imino[(2-methoxybenzyl)amino]methyl}amino)-1,3-thiazole-4-yl]acetate [Example 47] | < 50 nM
30 | COc1cccc(OC)c1CNC(=N)Nc1nc(C2CCCN2C(C)=O)cs1 (stereo not drawn) [Example 148, N-[4-(1-acetylpyrrolidine-2-yl)-1,3-thiazole-2-yl]-N′-(2,6-dimethoxybenzyl)guanidine] | < 50 nM
31 | COc1cccc(OC)c1CNC(=N)Nc1nc(-c2ccco2)cs1 [Example 117, N-(2,6-dimethoxybenzyl)-N′-[4-(2-furyl)-1,3-thiazole-2-yl]guanidine hydrobromide] | < 50 nM
32 | COc1ccccc1CNC(=N)Nc1cc(-c2ccc(Cl)cc2)[nH]n1 [Example 211, N-[5-(4-chlorophenyl)-1H-pyrazole-3-yl]-N′-(2-methoxybenzyl)guanidine] | < 50 nM
33 | CCCCS(=O)(=O)NCc1csc(NC(=N)NCc2c(OC)cccc2OC)n1 [Example 157, N-[(2-{[[(2,6-dimethoxybenzyl)amino](imino)methyl]amino}-1,3-thiazole-4-yl)methyl]butane-1-sulfonamide] | < 50 nM
34 | COc1cccc(OC)c1CNC(=N)Nc1nc2ccccc2[nH]1 [Example 182, N-1H-benzimidazole-2-yl-N′-(2,6-dimethoxybenzyl)guanidine diacetate] | < 50 nM
35 | COc1cccc(Cl)c1CNC(=N)Nc1nc(-c2ccc(F)cc2)cs1 [Example 136, N-(2-chloro-6-methoxybenzyl)-N′-[4-(4-fluorophenyl)-1,3-thiazole-2-yl]guanidine] | 50 to 500 nM
36 | COc1cccc(OC)c1CNC(=N)Nc1nc(C2CCCN2S(=O)(=O)c2ccccc2)cs1 (stereo not drawn) [Example 150, N-(2,6-dimethoxybenzyl)-N′-{4-[1-(phenylsulfonyl)pyrrolidine-2-yl]-1,3-thiazole-2-yl}guanidine] | < 50 nM
37 | COc1cccc(OC)c1CNC(=N)Nc1nc(C(C)(C)C)cs1 [Example 36, N-(4-tert-butyl-1,3-thiazole-2-yl)-N′-(2,6-dimethoxybenzyl)guanidine] | < 50 nM
38 | COc1ccccc1CNC(=N)Nc1nc(C)c(C)o1 [Example 173, N-(4,5-dimethyl-1,3-oxazole-2-yl)-N′-(2-methoxybenzyl)guanidine] | 50 to 500 nM
39 | COc1cccc(OC)c1CNC(=N)Nc1nc2cc(Cl)c(C)cc2s1 [Example 171, N-(5-chlor-6-methyl-1,3-benzothiazole-2-yl)-N′-(2,6-dimethoxybenzyl)guanidine difumarate] | 50 to 500 nM
40 | CCOc1ccccc1CNC(=N)Nc1nccs1 [Example 8, N-(2-ethoxybenzyl)-N′-1,3-thiazole-2-ylguanidine hydrochloride] | < 50 nM
41 | COc1cccc(OC)c1CNC(=N)Nc1ncc(-c2ccc(F)cc2)s1 [Example 128, N-(2,6-dimethoxybenzyl)-N′-[5-(4-fluorophenyl)-1,3-thiazole-2-yl]guanidine] | < 50 nM
42 | COc1cccc(OC)c1CNC(=N)Nc1nc(C2CCCN2C)cs1 (stereo not drawn) [Example 149, N-(2,6-dimethoxybenzyl)-N′-[4-(1-methylpyrrolidine-2-yl)-1,3-thiazole-2-yl]guanidine] | < 50 nM
